Common to all, as to format: cell-based
The subject of assay [1] is Pseudomonas aeroginosa. Briefly: MIC on Landy agar against bacteria. To be noted: 72 h, 3 days at 28° C., 60-70% relative atmospheric humidity, read-out: Minimum inhibitory concentrations Pseudomonas aeroginosa. Here is the method: (§1) A defined Landy Agar was admixed with the active compounds according to the invention in concentrations of […]. The MIC was determined after 3 days of storage at 28° C. and 60-70% relative atmospheric humidity.

Assay [2] has as its system Bacillus subtilis. Kind of assay: MIC on Landy agar against bacteria. To be noted: 72 h, 3 days at 28° C., 60-70% relative atmospheric humidity, read-out: Minimum inhibitory concentrations Bacillus subtilis. Here is the method:
as §1

Assay [3] concerns Chaetomium globosum. Kind of assay: MIC on malt extract agar against fungi. Conditions: 336 h, 2 weeks at 28° C., 60 to 70% relative atmospheric humidity, read-out: Minimum inhibitory concentrations Chaetomium globosum. Here is the method:
(§2) The MIC was determined after 2 weeks of storage at 28° C. and 60 to 70% relative atmospheric humidity.

For assay [4], the system named is Penicillium brevicaule. Briefly: MIC on malt extract agar against fungi. Conditions: 336 h, 2 weeks at 28° C., 60 to 70% relative atmospheric humidity, read-out: Minimum inhibitory concentrations Penicillium brevicaule. Here is the method:
as §2

For `N#CC1=C(NO)CCC1` [Example 1, 2-(Hydroxyamino)-1-cyclopentene-1-carbonitrile], the MIC in assay [1] and in assay [2] was less than 400 µg/mL throughout.
For the molecule `N#CC1=C(NOCc2ccccc2)CCC1` [Example 3, 2-[(Benzyloxy)amino]-1-cyclopentene-1-carbonitrile], the MIC in assay [3] and in assay [4] was less than 400 µg/mL in each case.
As to `CC(C)C(=O)ON(C(=O)C(C)C)C1=C(C#N)CCC1` [Example 4, N-(2-Cyano-1-cyclopenten-1-yl)-N-(isobutyryloxy)-2-methylpropanamide], the MIC in assay [1], in assay [2], in assay [3] and in assay [4] was less than 400 µg/mL throughout.
As for `Cc1ccc(CONC2=C(C#N)CCC2)cc1` [Example 12], the MIC in assay [3] and in assay [4] was less than 400 µg/mL each time.
With `N#CC1=C(NOCc2ccc(Cl)cc2)CCC1` [Example 14], the MIC in assay [3] and in assay [4] was less than 400 µg/mL throughout.
